Results: article PMC9303367, “Synthesis of Aminoethyl‐Substituted Piperidine Derivatives as σ1 Receptor Ligands with Antiproliferative Properties” (Chemmedchem, 2022)
Read-outs that look alike come from different tables or passages of the source.

How the values were obtained:
σ1 receptor [1] = biological target: T1, σ1 receptor (Cavia porcellus, UniProt Q60492); test: σ1 receptor radioligand binding assay ([3H]-(+)-pentazocine, guinea pig brain homogenate); details: for σ1 : σ2 selectivity: Ki(σ2)/Ki(σ1); for Ki: guinea pig brain, [3H]-(+)-pentazocine, piperidines tested as cis/trans mixtures
T1 construct: The thawed membrane preparation of guinea pig brain cortex; tissue Harlan-Winkelmann, Borchen, Germany; host or cells: guinea pig brain (cortex) membrane homogenate
T1 sequence (Q60492 whole entry): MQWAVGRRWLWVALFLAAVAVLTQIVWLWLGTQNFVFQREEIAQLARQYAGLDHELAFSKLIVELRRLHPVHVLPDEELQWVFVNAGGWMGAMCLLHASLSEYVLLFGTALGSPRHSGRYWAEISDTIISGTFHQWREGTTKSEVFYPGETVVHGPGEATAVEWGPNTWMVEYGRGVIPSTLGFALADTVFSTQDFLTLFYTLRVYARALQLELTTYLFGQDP

σ2 receptor [2] = biological target: T2, σ2 receptor (Rattus norvegicus, UniProt Q5U3Y7); test: σ2 receptor radioligand binding assay ([3H]DTG with excess (+)-pentazocine, rat liver membranes); details: for Ki: read-out: σ2 affinity K i±SEM (n=3), rat liver membranes, [3H]DTG + (+)-pentazocine; for inhibition at 1 µM: test compound concentration 1 μM
T2 construct: The thawed rat liver membrane preparation; tissue Harlan-Winkelmann, Borchen, Germany; host or cells: rat liver membrane preparation
T2 sequence (Q5U3Y7 1-176): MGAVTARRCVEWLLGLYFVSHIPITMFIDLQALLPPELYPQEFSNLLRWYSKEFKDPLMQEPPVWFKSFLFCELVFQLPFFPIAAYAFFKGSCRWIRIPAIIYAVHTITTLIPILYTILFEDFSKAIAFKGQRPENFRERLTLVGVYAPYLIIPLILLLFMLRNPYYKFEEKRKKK

[3] = tested on: androgen negative human prostate cancer cells DU145; test: DU145 cell growth inhibition, sulforhodamine B staining, 72 h; type: cell-based; details: 72 h incubation, n=3, read-out: cytotoxicity (DU145) IC 50
Procedure: In the assay, DU145 tumor cells were incubated in 96‐well plates for 24 h. Different concentrations of the test compounds were added and after incubation for additional 72 h, the amount of living cells was recorded by staining with Sulforhodamine B.[62] In Table 3 the activity of the prototypical σ1 antagonists NE‐100 and S1RA is included.
6. Growth inhibition of DU145 tumor cells
DU145 cells were purchased from ATCC and maintained in adherent conditions in RPMI 1640 medium (21875-034, Gibco®) supplemented with 2 % (S)-glutamine, 10 % fetal […]
Gibco®). For the proliferation assays, DU145 cells were seeded at a density of 2 x 10^3 cells/well in 96-well tissue culture plates. 24 h later, the cells were treated with the […]
Then, the cells were fixed with 10 % (w/v) trichloroacetic acid and stained with sulforhodamine B for 30 min. The excess of the dye was removed by washing repeatedly with 1 % (v/v) acetic acid and the protein-bound dye was solubilized with Tris base solution for optical density (OD) measurement at 510 nm with a microplate reader. Cell proliferation and viability were expressed as percentages relative to those of DMSO treated cells. The data represent the results from three independent experiments. Statistical analysis was done using T-test and Anova. Figure […]
and two reference σ1 receptor antagonists.

[4] = logD7.4 by micro shake flask method (n-octanol / MOPS buffer pH 7.4, MS); type: physicochemical; details: read-out: logD7.4 (exp., n=3)
Procedure: However, the penalty for increased hydrolytic stability and σ1 receptor affinity of tetrahydropyrans 2 and cyclohexanes 3 is an increased molecular lipophilicity. In Figure 1 the calculated clogP values of the σ1 ligands 1–3 and one designed piperidine 4 a are summarized. In order to confirm the predicted clogP values, the logD7.4 values of the σ1 ligands 1–4 a were also determined experimentally using the micro shake flask method.[39, 40]
In order to argue with reliable lipophilicity values, the logD7.4 values of key compounds were determined experimentally following our micro‐shake‐flask protocol.[39, 40] According to this method, each compound of interest was distributed between an n‐octanol layer and an aqueous MOPS buffer pH 7.4. Subsequently, the amount of compound in the buffer layer was determined by mass spectrometry.

[5] = tested on: human non-small cell lung cancer cell line A427; test: A427 tumor cell proliferation (confluence) assay, IncuCyte S3 live cell imaging
Procedure: In particular the confluence and IC 50 values were determined.
Live Cell imaging using the IncuCyte® S3 Live Cell Analysis System
The measurement of the cell confluence and the determination of the IC50 values were
performed with the IncuCyte® S3 Live Cell Analysis System (Essen BioScience, Ltd.,
Royston, Hertfordshire, UK)
5.4. Preparation of 96-well plates
For the preparation of the 96-well plates for the Live Cell Imager, A427 cells from the flask
were detached and centrifuged. The pellet was resuspended in 20 mL of the medium
using the vortexer. 1 mL was used to determine the number of cells and the volume
required for 8,000-12,000 cells was calculated. This volume was then added to each well
Switzerland) and the well was filled up to a total volume of 150 µL with medium.
At a confluence of 30-40 % the test compounds were added. Dilutions of concentrations
of 200, 100, 40, 20, 10 and 4 µM were prepared in medium with 2 % DMSO. 50 µL of
each dilution were added to the wells, resulting in a final assay concentration of 50, 25,
10, 5, 2.5 and 1 µM, respectively. Each concentration was measured in triplicates on each
plate and on three different days.
5.5. Measurement of cell confluence
The cell confluence was measured using the IncuCyte® S3. For the scanning with the
at a 10-fold magnification. Four pictures were taken from each well every 2 h until the
growth curve of the cells reached a plateau (approx. 5 d). The mask for the analysis of
adjustment size of -1 pixel and an area filter of minimum 200 µm2. After the analysis, a
graph showing the development of the confluence over time was produced.
5.6. Competitive confluence assay
The plates were prepared as described above with the exception that the cells were grown
in 100 µL instead of 150 µL of medium. After the cell confluence reached 30-40 %, the
(final concentration: 10 µM).

water solubility = type: physicochemical; details: at higher concentrations
σ1 receptor [6] = biological target: T1, σ1 receptor; details: cited from earlier work
σ2 receptor [7] = biological target: T2, σ2 receptor; details: lead compounds 1–3; read-out: σ2 affinity K i±SEM; cited from earlier work
σ1 receptor [8] = details: read-out: σ1 affinity K i±SEM, cited from earlier work
σ1 receptor [9] = tested on: σ1 receptor; parameters: method as in PMID 21444132, PMID 21598296; details: mouse capsaicin assay; cited from earlier work
[10] = read-out: σ1 affinity K i±SEM (n=3)
[11] = lead compounds 1–3 (enantiomers), read-out: σ1 affinity K i±SEM

In the case of `CCN1CCC(CCNCc2ccccc2)CC1c1ccccc1` (stereo not drawn) [18b, cis‐ and trans‐N‐Benzyl‐2‐(1‐ethyl‐2‐phenyl‐piperidin‐ 4‐yl)ethan‐1‐amine], the “σ1 : σ2 selectivity” value (σ1 receptor [1]) is reported as 1 and the Ki (σ1 receptor [1]; σ1 affinity K i±SEM (n=3)) is reported as 129 ± 38 nM.
In the case of `CN1CCC(CCN2CCN(c3ccccc3)CC2)CC1c1ccccc1` (stereo not drawn) [22a, cis‐ and trans‐1‐(2‐(1‐Methyl‐2‐phenyl‐ piperidin‐4‐yl)ethyl)‐4‐phenylpiperazine], the “σ1 : σ2 selectivity” value (σ1 receptor [1]) is reported as 59, the Ki (σ1 receptor [1]; [10]) is reported as 27 ± 11 nM and the Ki (σ1 receptor [1]; σ1 affinity K i±SEM (n=3)) is reported as under 27 nM. For the same molecule, the Ki (σ2 receptor [2]) was 1600 nM and the IC50 ([3]; Homo sapiens, DU-145) was 4 µM.
For `c1ccc(CNCCC2CCNC(c3ccccc3)C2)cc1` (stereo not drawn) [4a, cis‐ and trans‐N‐Benzyl‐2‐(2‐phenylpiperidin‐4‐yl)ethan‐1‐amine], the Ki (σ1 receptor [1]; [10]) was 165 nM, the Ki (σ2 receptor [2]) was 372 nM and the logD [4] was -0.79 ± 0.07. For the same molecule, the IC50 ([5]; Homo sapiens, A-427, 120 h, read-out: Inhibition of cell confluency IC50 ± SD, A427 cells, last time point (approx. 5 d), n = 3) was 18 µM, the “functional behaviour at σ1 receptor in A427 tumor cell proliferation assay” value ([5]; effect reduced by σ1 agonist (+)-pentazocine (10 μM)) was “σ1 receptor antagonist” and the IC50 ([5]; read-out: Inhibition of cell confluency IC50 ± SD, A427 cells, last time point (approx. 5 d), n = 3) was 17 µM. The water solubility (water solubility) was “good water solubility”.
In the case of `c1ccc(CNCCC2CCCC(c3ccccc3)C2)cc1` (stereo not drawn) [compound 3], the Ki (σ1 receptor [6]; [11]) is given as 0.61 ± 0.1 nM, the “σ1 : σ2 selectivity” value (σ1 receptor [6]; lead compounds 1–3) is given as 80 and the Ki (σ2 receptor [7]) is given as 49 ± 31 nM. For the same molecule, the logD [4] was 3.25 ± 0.02.
In the case of `CCCN(CCC)CCc1ccc(OC)c(OCCc2ccccc2)c1` [NE‐100, reference compound], the Ki (σ1 receptor [8]; NE-100) is listed as 1.3 nM and the IC50 [3] is listed as over 10 µM.
For `c1ccc(CNCCC2CCOC(c3ccccc3)O2)cc1` (stereo not drawn) [compound 1], the Ki (σ1 receptor [6]; 1,3-dioxane 1, read-out: σ1 affinity K i) is given as 19 nM, the Ki (σ1 receptor [6]; [11]) is given as 6 ± 1 nM and the Ki (σ2 receptor [7]) is given as 4200 nM. For the same molecule, the “antiallodynic activity in vivo” value (σ1 receptor [9]) was “high antiallodynic activity” and the logD [4] was 1.36 ± 0.02.
In the case of `CCN1CC[C@H](CCNCCCc2ccccc2)C[C@@H]1c1ccccc1` [19b, cis‐N‐(2‐(1‐Ethyl‐2‐phenylpiperidin‐4‐yl)ethyl)‐3‐phenylpropan‐1‐amine], the Ki (σ1 receptor [1]; σ1 affinity K i±SEM (n=3)) is reported as 2400 nM and the “preference for the σ2 receptor over the σ1 receptor” value (σ2 receptor [2]) is reported as 7 fold.
In the case of `CN1CCC(CCNCc2ccccc2)CC1c1ccccc1` (stereo not drawn) [18a, cis‐ and trans‐N‐Benzyl‐2‐(1‐methyl‐2‐phenyl‐piperidin‐ 4‐yl)ethan‐1‐amine], the “σ1 : σ2 selectivity” value (σ1 receptor [1]) is reported as 61, the Ki (σ1 receptor [1]; [10]) is reported as 7.9 ± 0.2 nM and the logD [4] is reported as 0.52 ± 0.01.
`c1ccc(CCCNCCC2CCNC(c3ccccc3)C2)cc1` (stereo not drawn) [4b, cis‐ and trans‐N‐(3‐Phenylpropyl)‐2‐(2‐phenyl‐piperidin‐ 4‐yl)ethan‐1‐amine] gave a Ki (σ1 receptor [1]; σ1 affinity K i±SEM (n=3)) of 849 nM and an inhibition at 1 µM (σ2 receptor [2]) of 0%.
With `CN1CCC(CCNCC2CCCCC2)CC1c1ccccc1` (stereo not drawn) [20a, cis‐ and trans‐N‐(Cyclohexylmethyl)‐2‐(1‐methyl‐ 2‐phenylpiperidin‐4‐yl)ethan‐1‐amine] the “σ1 : σ2 selectivity” value (σ1 receptor [1]) was 18, the Ki (σ1 receptor [1]; σ1 affinity K i±SEM (n=3)) was 16 ± 5 nM and the IC50 ([3]; Homo sapiens, DU-145) was 4.9 µM.
For `Cc1ccc(S(=O)(=O)N2CCC(CCNCCCc3ccccc3)CC2c2ccccc2)cc1` (stereo not drawn) [13b, cis‐ and trans‐N‐(3‐Phenylpropyl)‐2‐(2‐phenyl‐1‐tosylpiperidin‐4‐yl)ethan‐1‐amine], the “σ1 : σ2 selectivity” value (σ1 receptor [1]) was 2 and the Ki (σ1 receptor [1]; σ1 affinity K i±SEM (n=3)) was 291 ± 139 nM.
For `Cc1cc(OCCN2CCOCC2)nn1-c1ccc2ccccc2c1` [S1RA, reference compound], the Ki (σ1 receptor [8]; S1RA) is listed as 17 ± 7 nM and the IC50 [3] is listed as over 10 µM.
With `CN1CC[C@H](CCNCCCc2ccccc2)C[C@@H]1c1ccccc1` [19a, cis‐N‐(2‐(1‐Methyl‐2‐phenylpiperidin‐4‐yl)‐ethyl)‐3‐ phenylpropan‐1‐amine] the “σ1 : σ2 selectivity” value (σ1 receptor [1]) was over 20, the Ki (σ1 receptor [1]; σ1 affinity K i±SEM (n=3)) was 50 ± 17 nM and the inhibition at 1 µM (σ2 receptor [2]) was 0%.
In the case of `CN(CCC1CCN(C)C(c2ccccc2)C1)Cc1ccccc1` (stereo not drawn) [21a, cis‐ and trans‐N‐Benzyl‐N‐methyl‐2‐(1‐methyl‐ 2‐phenylpiperidin‐4‐yl)ethan‐1‐amine], the “σ1 : σ2 selectivity” value (σ1 receptor [1]) is reported as 4, the Ki (σ1 receptor [1]; [10]) is reported as 19 ± 9 nM and the Ki (σ1 receptor [1]; σ1 affinity K i±SEM (n=3)) is reported as under 27 nM. It also gave a Ki (σ2 receptor [2]) of 77 ± 5 nM and an IC50 ([3]; Homo sapiens, DU-145) of 5.5 µM.
In the case of `CC(C)=CCN1CC[C@]2(C)c3cc(O)ccc3C[C@H]1[C@H]2C` [(+)‐pentazocine, reference compound], the “Inhibition of cell confluency IC50 ± SD” value ([5]; A427 cells, last time point (approx. 5 d), n = 3) is reported as “no effect”.
For `Cc1ccc(S(=O)(=O)N2CCC(CCNCc3ccccc3)CC2c2ccccc2)cc1` (stereo not drawn) [13a, cis‐ and trans‐N‐Benzyl‐2‐(2‐phenyl‐1‐tosyl‐piperidin‐ 4‐yl)ethan‐1‐amine], the melting point was 79 °C, the “σ1 : σ2 selectivity” value (σ1 receptor [1]) was 13 and the Ki (σ1 receptor [1]; σ1 affinity K i±SEM (n=3)) was 57 ± 21 nM.
In the case of `c1ccc(CNCCC2CCCC(c3ccccc3)O2)cc1` (stereo not drawn) [compound 2], the Ki (σ1 receptor [6]; [11]) is listed as 1.6 ± 0.2 nM, the Ki (σ2 receptor [7]) is listed as 378 nM and the logD [4] is listed as 2.52 ± 0.05.
